# Measurements published in patent publication US8350062B2, “Synthesis and anticancer activity of new actin-targeting small-molecule agents” (priority 2009, dated 2013).
# Columns and labels:
# Assay in all cases: NCI 60 cell line single dose screen
# Format in all cases: cell-based, human
# [1] = system: MCF7; settings: MCF7 (Breast Cancer), 10 micromolar, 48 h
# Text: (§1) Analog 10 was screened utilizing 60 different human tumor cell lines, representing leukemia, melanoma and cancers of the lung, colon, brain, ovary, breast, prostate, and kidney in order to show selective growth inhibition or cell killing of particular tumor cell lines. This screen is unique in that the complexity of a 60 cell line dose response produced by a given compound results in a biological response pattern which can be utilized in pattern recognition algorithms (COMPARE program. See: http://dtp.nci.nih.gov/docs/compare/compare.html). Using these algorithms, it is possible to assign a putative mechanism of action to a test compound, or to determine that the response pattern is unique and not similar to that of any of the standard prototype compounds included in the NCI database. In addition, following characterization of various cellular molecular targets in the 60 cell lines, it may be possible to select compounds most likely to interact with a specific molecular target.
# (§2) The screening is a two-stage process, beginning with the evaluation of the compound against the 60 cell lines at a single dose of 10 uM.
# (§3) The human tumor cell lines of the cancer screening panel are grown in RPMI 1640 medium containing 5% fetal bovine serum and 2 mM L-glutamine. For a typical screening experiment, cells are inoculated into 96 well microtiter plates in 100 μL at plating densities ranging from 5,000 to 40,000 cells/well depending on the doubling time of individual cell lines. After cell inoculation, the microtiter plates are incubated at 37° C., 5% CO2, 95% air and 100% relative humidity for 24 h prior to addition of experimental drug.
# (§4) After 24 h, two plates of each cell line are fixed in situ with TCA, to represent a measurement of the cell population for each cell line at the time of drug addition (Tz). Experimental drugs are solubilized in dimethyl sulfoxide at 400-fold the desired final maximum test concentration and stored frozen prior to use. At the time of drug addition, an aliquot of frozen concentrate is thawed and diluted to twice the desired final maximum test concentration with complete medium containing 50 μg/ml gentamicin.
# (§5) Following drug addition, the plates are incubated for an additional 48 h at 37° C., 5% CO2, 95% air, and 100% relative humidity. For adherent cells, the assay is terminated by the addition of cold TCA. Cells are fixed in situ by the gentle addition of […] of cold 50% (w/v) TCA (final concentration, 10% TCA) and incubated for 60 minutes at 4° C. The supernatant is discarded, and the plates are washed five times with tap water and air dried. Sulforhodamine B (SRB) solution (100 μl) at 0.4% (w/v) in 1% acetic acid is added to each well, and plates are incubated for 10 minutes at room temperature. After staining, unbound dye is removed by washing five times with 1% acetic acid and the plates are air dried. Bound stain is subsequently solubilized with 10 mM trizma base, and the absorbance is read on an automated plate reader at a wavelength of 515 nm. For suspension cells, the methodology is the same except that the assay is terminated by fixing settled cells at the bottom of the wells by gently adding 50 μl of 80% TCA (final concentration, 16% TCA). Using the absorbance measurements [time zero, (Tz), control growth, (C), and test growth in the presence of drug (Ti)], the percentage growth is calculated.
# [2] = system: OVCAR-5; settings: OVCAR-5 (Ovarian Cancer), 10 micromolar, 48 h
# Text: as §1, §2, §3, §4, §5
# [3] = system: A498; settings: A498 (Renal Cancer), 10 micromolar, 48 h
# Text: as §1, §2, §3, §4, §5
# [4] = system: SK-MEL-2; settings: SK-MEL-2 (Melanoma), 10 micromolar, 48 h
# Text: as §1, §2, §3, §4, §5
# [5] = system: ACHN; settings: ACHN (Renal Cancer), 10 micromolar, 48 h
# Text: as §1, §2, §3, §4, §5
# [6] = system: CAKI-1; settings: CAKI-1 (Renal Cancer), 10 micromolar, 48 h
# Text: as §1, §2, §3, §4, §5
# [7] = system: T-47D; settings: T-47D (Breast Cancer), 10 micromolar, 48 h
# Text: as §1, §2, §3, §4, §5
# [8] = system: SNB-75; settings: SNB-75 (CNS Cancer), 10 micromolar, 48 h
# Text: as §1, §2, §3, §4, §5
# [9] = system: MOLT-4; settings: MOLT-4 (Leukemia), 10 micromolar, 48 h
# Text: as §1, §2, §3, §4, §5
# [10] = system: MALME-3M; settings: MALME-3M (Melanoma), 10 micromolar, 48 h
# Text: as §1, §2, §3, §4, §5
# [11] = system: NCI/ADR-RES; settings: NCI/ADR-RES (Ovarian Cancer), 10 micromolar, 48 h
# Text: as §1, §2, §3, §4, §5
# [12] = system: HS 578T; settings: HS 578T (Breast Cancer), 10 micromolar, 48 h
# Text: as §1, §2, §3, §4, §5
# [13] = system: SF-268; settings: SF-268 (CNS Cancer), 10 micromolar, 48 h
# Text: as §1, §2, §3, §4, §5
# [14] = system: KM12; settings: KM12 (Colon Cancer), 10 micromolar, 48 h
# Text: as §1, §2, §3, §4, §5
# [15] = system: NCI-H522; settings: NCI-H522 (Non-Small Cell Lung Cancer), 10 micromolar, 48 h
# Text: as §1, §2, §3, §4, §5
# [16] = system: OVCAR-3; settings: OVCAR-3 (Ovarian Cancer), 10 micromolar, 48 h
# Text: as §1, §2, §3, §4, §5
# [17] = system: HOP-62; settings: HOP-62 (Non-Small Cell Lung Cancer), 10 micromolar, 48 h
# Text: as §1, §2, §3, §4, §5
# [18] = system: UACC-62; settings: UACC-62 (Melanoma), 10 micromolar, 48 h
# Text: as §1, §2, §3, §4, §5
# [19] = system: UACC-257; settings: UACC-257 (Melanoma), 10 micromolar, 48 h
# Text: as §1, §2, §3, §4, §5
# [20] = system: PC-3; settings: PC-3 (Prostate Cancer), 10 micromolar, 48 h
# Text: as §1, §2, §3, §4, §5
# [21] = system: HT29; settings: HT29 (Colon Cancer), 10 micromolar, 48 h
# Text: as §1, §2, §3, §4, §5
# [22] = system: BT-549; settings: BT-549 (Breast Cancer), 10 micromolar, 48 h
# Text: as §1, §2, §3, §4, §5
compound,measurement,setting,value
COCCC(=O)NC[C@H](O)[C@H](C)C(=O)NCCC[C@H]1O[C@@]2(CCC[C@@H](CC[C@H](C)/C=C(\C)[C@H](C)O)O2)CCC1C (stereo partly shown) [Analog 10],Growth Percent,[1],62.27%
same,Growth Percent,[2],61.79%
same,Growth Percent,[3],1.82%
same,Growth Percent,[4],53.99%
same,Growth Percent,[5],51.57%
same,Growth Percent,[6],−37.52%
same,Growth Percent,[7],71.80%
same,Growth Percent,[8],6.67%
same,Growth Percent,[9],57.48%
same,Growth Percent,[10],72.36%
same,Growth Percent,[11],88.16%
same,Growth Percent,[12],46.51%
same,Growth Percent,[13],37.08%
same,Growth Percent,[14],73.09%
same,Growth Percent,[15],32.60%
same,Growth Percent,[16],83.59%
same,Growth Percent,[17],40.92%
same,Growth Percent,[18],48.46%
same,Growth Percent,[19],72.55%
same,Growth Percent,[20],66.25%
same,Growth Percent,[21],30.53%
same,Growth Percent,[22],29.35%
